Experimental data taken from publication PMC6270991, “Design and Synthesis of Thiazolo[5,4-f]quinazolines as DYRK1A Inhibitors, Part I” (Molecules, 2014).
Where two headings read alike, the source gives them in different places.

How the values were obtained:
GSK-3α/β = GSK-3α/β in vitro kinase assay (33P-ATP, GS-1 peptide); assay type: biochemical, Porcine; details: 15 μM ATP, 30 min at 30 °C, triplicate; <50% inhibition at 10 µM reported as >10; read-out: GSK3 IC50
Procedure: (§1) Buffer A: MgCl2 (10 mM), 1 mM ethylene glycol-bis(2-aminoethylether)-N,N,N',N'-tetraacetic acid (EGTA), 1 mM dithiothreitol (DTT), 25 mM Tris-HCl pH 7.5, 50 μg heparin/mL.
(§2) Controls were performed with appropriate dilutions of dimethylsulfoxide (DMSO). IC50 values were calculated from dose-response curves established by Sigma-Plots. The GSK-3, CK1, DYRK1A and CLK1 peptide substrates were obtained from Proteogenix (Oberhausbergen, France).
(§3) CDK5/p25. (Human, recombinant) was prepared as previously described. […] ATP (3000 Ci/mmol; 10 mCi/mL) in a final volume of 30 μL. After 30 min incubation at 30 °C, 25 μL aliquots of supernatant were spotted onto sheets of Whatman P81 phosphocellulose paper, and 20 s later, the filters were washed eight times (for at least 5 min each time) in a solution of 10 mL phosphoric acid/L of water. The wet filters were counted in the presence of 1 mL ACS (Amersham) scintillation fluid.
GSK-3α/β. (Porcine brain, native) was assayed as described for CDK5/p25, but in buffer A and using a GSK-3 specific substrate (GS-1: […]pSEDEEE) (pS stands for phosphorylated serine).

CDK5/p25 = target: T1, CDK5/p25 (Homo sapiens, UniProt Q00535); experiment: CDK5/p25 in vitro kinase assay (33P-ATP, histone H1); assay type: biochemical
T1 construct: made in house
T1 sequence (Q00535 whole entry): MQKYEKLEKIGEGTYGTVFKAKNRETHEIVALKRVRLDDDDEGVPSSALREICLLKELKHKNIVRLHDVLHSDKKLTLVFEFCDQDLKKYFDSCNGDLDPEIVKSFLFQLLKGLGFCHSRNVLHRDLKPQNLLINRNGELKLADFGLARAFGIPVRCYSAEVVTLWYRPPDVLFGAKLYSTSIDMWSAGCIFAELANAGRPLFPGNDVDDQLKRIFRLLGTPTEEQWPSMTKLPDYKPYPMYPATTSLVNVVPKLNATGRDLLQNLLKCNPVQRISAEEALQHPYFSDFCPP
T1 sequence (Q15078 99-307 partner limits assumed): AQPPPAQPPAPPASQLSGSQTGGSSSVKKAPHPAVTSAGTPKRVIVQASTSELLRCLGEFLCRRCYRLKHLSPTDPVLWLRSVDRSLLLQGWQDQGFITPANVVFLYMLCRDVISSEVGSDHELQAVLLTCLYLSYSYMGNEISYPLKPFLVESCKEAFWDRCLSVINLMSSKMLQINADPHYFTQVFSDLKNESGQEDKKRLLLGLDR
Procedure: as §1, §2, §3

CK1δ/ε = CK1δ/ε in vitro kinase assay (33P-ATP, CK1-specific peptide substrate); assay type: biochemical, Porcine; details: 15 μM ATP, 30 min at 30 °C, triplicate; <50% inhibition at 10 µM reported as >10
Procedure: as §2, §3
CK1δ/ε. (Porcine brain, native) was assayed as described for CDK5/p25, but using the CK1-specific peptide substrate […]pSAYSITA [23].

DYRK1A = DYRK1A (Rattus norvegicus, UniProt Q63470); experiment: DYRK1A in vitro kinase assay (33P-ATP, Woodtide substrate); assay type: biochemical
Procedure: as §1, §2, §3

| SMILES | IC50 (GSK-3α/β) [µM] | IC50 (CDK5/p25; read-out: CDK5 IC50) [µM] | IC50 (CK1δ/ε) [µM] | IC50 (DYRK1A) [µM] | IC50 (CDK5/p25) [µM] |
| --- | --- | --- | --- | --- | --- |
| COc1ccc(Nc2ncnc3ccc4nc(C(=N)NCCN5CCOCC5)sc4c23)cc1 [Compound 7a, 9-(4-Methoxyphenylamino)-N-(2-morpholinoethyl)thiazolo[5,4-f]quinazoline-2-carboximidamide] | 1.1 | > 10 | > 10 | > 10 |  |
| COc1ccc(Nc2ncnc3ccc4nc(C(=N)NCCN5CCCCC5)sc4c23)cc1 [Compound 7b, 9-(4-Methoxyphenylamino)-N-(2-(piperidin-1-yl)ethyl)thiazolo[5,4-f]quinazoline-2-carboximidamide] | 2.5 | > 10 | > 10 | > 10 |  |
| COc1ccc(Nc2ncnc3ccc4nc(C(=N)NCCN5CCCC5)sc4c23)cc1 [Compound 7c, 9-(4-Methoxyphenylamino)-N-(2-(pyrrolidin-1-yl)ethyl)thiazolo[5,4-f]quinazoline-2-carboximidamide] | 2 | > 10 | > 10 | > 10 |  |
| COc1ccc(Nc2ncnc3ccc4nc(C(=N)NCCN(C)C)sc4c23)cc1 [Compound 7d, N-(2-(Dimethylamino)ethyl)-9-(4-methoxyphenylamino)thiazolo[5,4-f]quinazoline-2-carboximidamide] | > 10 | > 10 | > 10 | > 10 |  |
| CCN(CC)CCNC(=N)c1nc2ccc3ncnc(Nc4ccc(OC)cc4)c3c2s1 [Compound 7e, N-(2-(Diethylamino)ethyl)-9-(4-methoxyphenylamino)thiazolo[5,4-f]quinazoline-2-carboximidamide] | 1.3 | > 10 | > 10 | 4 |  |
| COc1ccc(Nc2ncnc3ccc4nc(C(=N)NCc5ccccc5)sc4c23)cc1 [Compound 7f, N-Benzyl-9-(4-methoxyphenylamino)thiazolo[5,4-f]quinazoline-2-carboximidamide] | 2 | > 10 | > 10 | 8 |  |
| COc1ccc(Nc2ncnc3ccc4nc(C(=N)N(C)C)sc4c23)cc1 [Compound 7g, 9-(4-Methoxyphenylamino)-N,N-dimethylthiazolo[5,4-f]quinazoline-2-carboximidamide] | 1.1 | > 10 | > 10 | 0.7 |  |
| COc1ccc(Nc2ncnc3ccc4nc(C(N)=O)sc4c23)cc1 [Compound 7h, 9-(4-Methoxyphenylamino)thiazolo[5,4-f]quinazoline-2-carboxamide] | 0.3 |  | > 10 |  | > 10 |
| COC(=N)c1nc2ccc3ncnc(Nc4ccc(OC)cc4)c3c2s1 [Compound 7i, Methyl 9-(4-methoxyphenylamino)thiazolo[5,4-f]quinazoline-2-carbimidate] | 0.2 | > 10 | > 10 |  |  |
| N=C(NCCN1CCOCC1)c1nc2ccc3ncnc(Nc4ccc5c(c4)OCO5)c3c2s1 [Compound 8a, 9-(Benzo[d][1,3]dioxol-5-ylamino)-N-(2-morpholinoethyl)thiazolo[5,4-f]quinazoline-2-carboximidamide] | 0.97 | > 10 | > 10 | 2.2 |  |
| COC(=N)c1nc2ccc3ncnc(Nc4ccc(Br)cc4F)c3c2s1 [Compound 9i, Methyl 9-(4-bromo-2-fluorophenylamino)thiazolo[5,4-f]quinazoline-2-carbimidate] | 0.16 | > 10 | > 10 |  |  |
| NC(=O)c1nc2ccc3ncnc(Nc4ccc(F)c(Cl)c4)c3c2s1 [Compound 10h, 9-(3-Chloro-4-fluorophenylamino)thiazolo[5,4-f]quinazoline-2-carboxamide] | 0.66 |  | > 10 |  | > 10 |
| COC(=N)c1nc2ccc3ncnc(Nc4ccc(F)c(Cl)c4)c3c2s1 [Compound 10i, Methyl 9-(3-chloro-4-fluorophenylamino)thiazolo[5,4-f]quinazoline-2-carbimidate] |  | > 10 |  |  |  |
